Measurements taken from paper PMC12344671 (Journal of Enzyme Inhibition and Medicinal Chemistry, 2025).

Columns and labels:
[1] = biological target: mDUSP-H1 (DUSP-H1 from monkeypox virus) (Monkeypox virus, UniProt A0A7H0DN78); assay: biochemical; format: biochemical
[2] = system: normal human cell lines; conditions: cited from earlier work
[3] = system: HEK293; conditions: cited from earlier work
[4] = system: human dermal fibroblasts (HDF); conditions: cited from earlier work

Chain of mDUSP-H1 (DUSP-H1 from monkeypox virus) (A0A7H0DN78 whole entry, looked up): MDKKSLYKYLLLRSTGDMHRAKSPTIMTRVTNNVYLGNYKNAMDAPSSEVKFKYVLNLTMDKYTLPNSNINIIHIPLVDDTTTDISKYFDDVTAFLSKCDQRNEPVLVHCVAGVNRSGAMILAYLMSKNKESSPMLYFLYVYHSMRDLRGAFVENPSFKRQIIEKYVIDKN

Row | SMILES | IC50 [1] [µM] | mDUSP-H1 reactivity compared to the DMSO control [1] | other results
1 | O=C(O[C@@H]1Cc2c(O)cc(O)cc2O[C@@H]1c1cc(O)c(O)c(O)c1)c1cc(O)c(O)c(O)c1 [(−)-Epigallocatechin gallate] | 14 ± 0.35 | significantly reduced reactivity | –
2 | Oc1cc(O)c2c(c1)O[C@@H](c1cc(O)c(O)c(O)c1)[C@H](O)C2 [(−)-Gallocatechin] | 9.56 ± 0.32 | significantly reduced reactivity | IC50 [2]: > 100 µM; non-toxic concentration [2]: ≤ 100 µM
3 | O=c1cc(-c2ccccc2)oc2cc(O)c(O)c(O)c12 [Baicalein] | 11.2 ± 0.14 | significantly reduced reactivity | –
4 | COc1cc2oc(-c3ccc(O)c(O)c3)cc(=O)c2c(O)c1OC [Cirsiliol] | – | relatively unchanged | –
5 | O=c1cc(-c2ccc(O)cc2)oc2c(-c3c(O)cc(O)c4c(=O)cc(-c5ccc(O)cc5)oc34)c(O)cc(O)c12 [Cupressuflavone] | 11.1 ± 0.18 | significantly reduced reactivity | –
6 | COc1ccc(-c2cc(=O)c3c(O)cc(O)cc3o2)cc1O [Diosmetin] | – | relatively unchanged | inhibitory activity against mDUSP-H1 (in words) [1]: no significant inhibitory activity
7 | O=c1c(O)c(-c2ccc(O)cc2)oc2c(O)c(O)cc(O)c12 [Herbacetin] | 12.71 ± 0.08 | significantly reduced reactivity | –
8 | O=c1c(O)c(-c2cc(O)c(O)c(O)c2)oc2cc(O)cc(O)c12 [Myricetin] | – | significantly reduced reactivity | IC50 [3]: > 100 µM; IC50 [2]: > 100 µM; IC50 [4]: > 100 µM
9 | C[C@@H]1O[C@@H](O[C@H]2[C@H](Oc3cc(O)c4c(c3)O[C@H](c3ccc(O)cc3)CC4=O)O[C@H](CO)[C@@H](O)[C@@H]2O)[C@H](O)[C@H](O)[C@H]1O [Naringin] | – | relatively unchanged | inhibitory activity against mDUSP-H1 (in words) [1]: little to no activity
10 | COc1ccc(-c2cc(=O)c3c(O)c(OC)c(O[C@@H]4O[C@H](CO[C@@H]5O[C@@H](C)[C@H](O)[C@@H](O)[C@H]5O)[C@@H](O)[C@H](O)[C@H]4O)cc3o2)cc1 [Pectolinarin] | – | relatively unchanged | –
11 | C[C@@H]1O[C@@H](Oc2c(-c3ccc(O)c(O)c3)oc3cc(O)cc(O)c3c2=O)[C@H](O)[C@H](O)[C@H]1O [Quercitrin] | – | relatively unchanged | inhibitory activity against mDUSP-H1 (in words) [1]: minimal inhibition
